Literature values in paper PMC6173406, “Design and evaluation of selective butyrylcholinesterase inhibitors based on Cinchona alkaloid scaffold” (PLoS ONE, 2018).

Target: T1, human BChE (Homo sapiens, UniProt P06276)
T1 construct: gift of Dr. F. Nachon (Département de Toxicologie, Armed Forces Biomedical Research Institute, France)
Details: cited from earlier work

T1 sequence (P06276 29-602): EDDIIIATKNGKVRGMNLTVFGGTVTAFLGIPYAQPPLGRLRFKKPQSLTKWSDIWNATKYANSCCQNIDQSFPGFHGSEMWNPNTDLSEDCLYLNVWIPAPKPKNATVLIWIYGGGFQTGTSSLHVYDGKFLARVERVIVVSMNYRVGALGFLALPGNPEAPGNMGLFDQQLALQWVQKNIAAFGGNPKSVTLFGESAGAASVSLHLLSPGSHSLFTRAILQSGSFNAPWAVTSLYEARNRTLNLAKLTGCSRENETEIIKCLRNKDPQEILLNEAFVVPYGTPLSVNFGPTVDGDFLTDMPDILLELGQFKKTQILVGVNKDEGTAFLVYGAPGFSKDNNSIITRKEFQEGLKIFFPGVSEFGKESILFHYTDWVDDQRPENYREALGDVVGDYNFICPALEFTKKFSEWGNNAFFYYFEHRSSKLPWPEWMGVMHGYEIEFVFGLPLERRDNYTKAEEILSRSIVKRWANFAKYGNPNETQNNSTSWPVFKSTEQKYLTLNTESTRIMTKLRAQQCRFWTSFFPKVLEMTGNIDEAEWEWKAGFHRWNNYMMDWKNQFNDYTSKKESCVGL

CCN(CC)C(C)CN1c2ccccc2Sc2ccccc21 (centres unmarked) [Ethopropazine]
BChE Ks: 0.69 ± 0.14 mM | Ki (read-out: BChE Ki): 0.16 ± 0.03 µM
